Strand notation (5' to 3'): a small letter for the sugar, then the base; units joined by * are phosphorothioate-linked, units joined directly phosphodiester-linked; [ ] holds rarer units or linkages, { } end groups; capitals alone tell only the bases. e = 2'-O-(2-methoxyethyl) (MOE); k = constrained ethyl (cEt); [5mC] = 5-methylcytosine; d = 2'-deoxy (DNA); m = 2'-O-methyl
System: Yap1 mRNA
Test: Antisense inhibition of human Yap1 in SNU-449 cells by modified oligonucleotides, single dose (Example 5, RTS36584)
Format: cell-based
Procedure, shortened: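 SNU-449 cells (10,000/well) took up 2,000 nM oligonucleotide by free uptake for about 48 h. Yap1 mRNA was measured by qRT-PCR with primer probe set RTS36584 and normalised to RIBOGREEN total RNA. Values are % of untreated control; asterisked oligos target the amplicon region.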

[1] = Table 50, Yap1 mRNA remaining as percent of untreated control (UT), SNU-449 cells, single dose
[2] = Table 42 (separate experiment), SNU-449 cells, 10,000 cells per well, free uptake, 2,000 nM modified oligonucleotide, approximately 48 hours, RTS36584, normalized to RIBOGREEN, Yap1 mRNA relative to untreated control cells
[3] = Table 45, Yap1 mRNA as percent of untreated control, SNU-449 cells, single dose
[4] = Table 43 experiment, SNU-449 cells, 10,000 cells per well, free uptake, 2,000 nM, approximately 48 hours, RTS36584, Yap1 mRNA normalized to RIBOGREEN, relative to untreated control cells
[5] = Table 49, Yap1 mRNA level relative to untreated control, modified oligonucleotides targeting SEQ ID NO.: 1 and 2
[6] = Yap1 mRNA, percent of untreated control, modified oligonucleotides targeting SEQ ID NO: 1 and 2, Table 47
[7] = Table 48, Yap1 mRNA level relative to untreated control, modified oligonucleotides targeting SEQ ID NO.: 1 and 2
[8] = Table 44 experiment, SNU-449 cells, 10,000 cells per well, free uptake, 2,000 nM, approximately 48 hours, RTS36584, Yap1 mRNA normalized to RIBOGREEN, relative to untreated control cells
[9] = Table 40 (separate experiment), SNU-449 cells, 10,000 cells per well, free uptake, 2,000 nM oligonucleotide, approx. 48 hours, RTS36584, normalized to RIBOGREEN, Yap1 mRNA relative to untreated control
[10] = Table 39, SNU-449 cells, 10,000 cells per well, free uptake, 2,000 nM oligonucleotide, approx. 48 hours, RTS36584, normalized to RIBOGREEN, Yap1 mRNA relative to untreated control
[11] = Table 41, SNU-449 cells, 10,000 cells per well, free uptake, 2,000 nM modified oligonucleotide, approximately 48 hours, RTS36584, normalized to RIBOGREEN, Yap1 mRNA relative to untreated control cells
[12] = Table 52, Yap1 mRNA, modified oligonucleotides targeting SEQ ID NO: 1 and 2
[13] = Table 51, Yap1 mRNA remaining as percent of untreated control (UT), SNU-449 cells, single dose

1198594 (antisense k[5mC]*kT*kT*dA*dT*dA*dT*dG*dG*dT*dT*dT*kT*kG*kT*eG) [Compound 1198594]
YAP1 (% UT) [1]: 23 % UT

1198214 (kT*kA*dT*dA*dT*dT*dA*dG*dA*dG*dT*eA*eT*eG*kT*kG; antisense) [Compound 1198214]
YAP1 (% UTC) [2]: 91 % UTC

1198948 (kG*kA*d[5mC]*dA*dA*d[5mC]*dT*d[5mC]*dT*dT*dA*kT*dA*kT*dG*kG; antisense) [Compound 1198948]
YAP1 (% UTC) [3]: 96 % UTC

1198201 (kA*kA*dA*dT*dT*dG*dT*d[5mC]*dT*d[5mC]*dA*eT*eG*e[5mC]*k[5mC]*kT; antisense) [Compound 1198201]
YAP1 (% UTC) [2]: 34 % UTC

1198457 (kA*kT*dT*dG*dT*d[5mC]*dT*d[5mC]*dA*dT*dG*e[5mC]*k[5mC]*eT*kT*eA) [Compound 1198457]
YAP1 (% UTC) [4]: 18 % UTC

1198303 (kG*kG*kT*dA*dT*dA*dA*d[5mC]*dT*dG*dG*dG*k[5mC]*eA*kA*eA; antisense) [Compound 1198303]
YAP1 (% UT) [5]: 27 % UT

1198565 (antisense kT*kT*kA*d[5mC]*dA*dT*dT*dA*dG*dG*dA*dA*k[5mC]*kA*kA*eG) [Compound 1198565]
YAP1 (% UT) [5]: 53 % UT

1198595 (antisense kT*k[5mC]*kT*dT*dA*dT*dA*dT*dG*dG*dT*dT*kT*kT*kG*eT) [Compound 1198595]
YAP1 (% UT) [1]: 27 % UT

1198267 (kA*kG*dT*dG*dT*dA*dT*dG*dT*d[5mC]*dA*eG*eA*eA*kG*kA; antisense) [Compound 1198267]
YAP1 (% UTC) [4]: 7 % UTC

1198558 (antisense kT*kA*kT*dA*dT*dT*dA*dG*dA*dG*dT*dA*kT*kG*kT*eG) [Compound 1198558]
YAP1 (% UT) [5]: 46 % UT

1198707 (kA*kA*dG*dT*dA*dA*dG*dG*dT*dT*dT*d[5mC]*k[5mC]*e[5mC]*kA*eG; antisense) [Compound 1198707]
YAP1 (% UTC) [2]: 31 % UTC

1197211 (antisense kT*kA*kT*dG*dT*dA*dA*dT*dA*dT*dT*dG*d[5mC]*kA*kA*kT) [Compound 1197211]
YAP1 (% UT) [6]: 80 % UT

1197202 (antisense kA*k[5mC]*kT*d[5mC]*dT*dT*dA*dT*dA*dT*dG*dG*dT*kT*kT*kT) [Compound 1197202]
YAP1 (% UT) [7]: 27 % UT

1198507 (kT*kT*dA*dT*dA*dT*dG*dG*dT*dT*dT*eT*kG*eT*kG*eT; antisense) [Compound 1198507]
YAP1 (% UTC) [8]: 17 % UTC

1198576 (antisense kT*kT*kT*dG*dG*dA*dA*dG*dA*dT*d[5mC]*dT*kG*kA*kA*eA) [Compound 1198576]
YAP1 (% UT) [5]: 92 % UT

1198722 (kA*eT*kA*dT*dG*dG*dA*dA*dA*dT*dT*dG*eT*e[5mC]*kT*k[5mC]; antisense) [Compound 1198722]
YAP1 (% UTC) [9]: 48 % UTC

1198253 (kA*d[5mC]*dT*d[5mC]*dT*dT*dA*dT*dA*dT*dG*eG*eT*eT*kT*kT; antisense) [Compound 1198253]
YAP1 (% UTC) [4]: 50 % UTC

1198376 (kT*dG*dG*dA*dA*dA*dT*dT*dG*dT*d[5mC]*kT*e[5mC]*kA*eT*kG; antisense) [Compound 1198376]
YAP1 (% UTC) [10]: 36 % UTC

1198333 (kA*kT*kT*d[5mC]*dA*dG*dA*dT*dT*dT*dA*dG*kG*eA*kT*eG; antisense) [Compound 1198333]
YAP1 (% UT) [7]: 77 % UT

1198502 (kA*kG*dA*dT*dT*dT*dA*dG*dG*dA*dT*eG*k[5mC]*eA*kT*eG; antisense) [Compound 1198502]
YAP1 (% UTC) [8]: 16 % UTC

1198242 (kA*kT*dT*dT*dA*dG*dG*dA*dT*dG*d[5mC]*eA*eT*eG*kG*kT; antisense) [Compound 1198242]
YAP1 (% UTC) [4]: 47 % UTC

1198261 (kG*kT*dA*dA*dT*dA*dT*dT*dG*d[5mC]*dA*eA*eT*e[5mC]*kT*kG; antisense) [Compound 1198261]
YAP1 (% UTC) [4]: 54 % UTC

1197186 (antisense kT*kT*kA*dA*dG*d[5mC]*dA*d[5mC]*dT*dT*dT*dT*dA*k[5mC]*kA*kT) [Compound 1197186]
YAP1 (% UT) [6]: 65 % UT

1198791 (antisense kT*eT*kA*dA*dA*dG*dT*dG*dT*dA*dT*dG*eT*e[5mC]*kA*kG) [Compound 1198791]
YAP1 (% UTC) [11]: 39 % UTC

1198482 (antisense kA*k[5mC]*dT*dT*dT*dT*dA*d[5mC]*dA*dT*dT*eA*kG*eG*kA*eA) [Compound 1198482]
YAP1 (% UTC) [4]: 63 % UTC

1198398 (kG*d[5mC]*dA*dC*dT*dT*dT*dT*dA*d[5mC]*dA*kT*eT*kA*eG*kG) [Compound 1198398]
YAP1 (% UTC) [10]: 18 % UTC

1198860 (kA*kA*d[5mC]*dT*d[5mC]*dT*dT*dA*dT*dA*dT*kG*eG*kT*eT*kT; antisense) [Compound 1198860]
YAP1 (% UT) [6]: 82 % UT

1198890 (kT*kG*dT*d[5mC]*dT*d[5mC]*dA*dT*dG*d[5mC]*d[5mC]*kT*dT*kA*dT*kA) [Compound 1198890]
YAP1 (% UTC) [8]: 19 % UTC

1200865 (kT*kA*kA*dG*dG*mU*dT*dT*d[5mC]*d[5mC]*d[5mC]*dA*dG*kA*kT*kT; antisense) [Compound 1200865]
YAP1 (% UT) [12]: 54 % UT

1198968 (kA*kG*dT*dA*dA*dG*dG*dT*dT*dT*d[5mC]*k[5mC]*d[5mC]*kA*dG*kA; antisense) [Compound 1198968]
YAP1 (% UTC) [3]: 57 % UTC

1198225 (k[5mC]*kA*d[5mC]*dT*dT*dT*dT*dA*d[5mC]*dA*dT*eT*eA*eG*kG*kA) [Compound 1198225]
YAP1 (% UTC) [2]: 67 % UTC

1198702 (kT*kT*dT*dA*dA*dA*dG*dT*dG*dT*dA*dT*kG*eT*k[5mC]*eA; antisense) [Compound 1198702]
YAP1 (% UTC) [2]: 74 % UTC

1095454 (antisense k[5mC]*kT*kG*dA*dG*dG*dT*dA*dT*dA*dA*d[5mC]*kT*kG*kG*eG) [Compound 1095454]
YAP1 (% UT) [1]: 47 % UT

1197242 (antisense k[5mC]*kA*k[5mC]*dT*mG*dA*dG*dG*dT*dA*dT*dA*dA*k[5mC]*kT*kG) [Compound 1197242]
YAP1 (% UT) [13]: 46 % UT

1200792 (kA*kT*kA*dT*dG*mG*dA*dA*dA*dT*dT*dG*dT*k[5mC]*kT*k[5mC]; antisense) [Compound 1200792]
YAP1 (% UT) [12]: 52 % UT

1198520 (kT*kG*dT*dA*dA*dT*dA*dT*dT*dG*d[5mC]*eA*kA*eT*k[5mC]*eT; antisense) [Compound 1198520]
YAP1 (% UTC) [8]: 51 % UTC

1198663 (antisense k[5mC]*kT*dT*dT*dG*dG*dA*dA*dG*dA*dT*d[5mC]*kT*eG*kA*eA) [Compound 1198663]
YAP1 (% UTC) [11]: 76 % UTC

1198668 (antisense kA*kT*dA*dG*dT*dG*d[5mC]*dT*dT*dT*dG*dG*kA*eA*kG*eA) [Compound 1198668]
YAP1 (% UTC) [11]: 72 % UTC

1198550 (antisense kA*kT*kA*dT*dG*dG*dA*dA*dA*dT*dT*dG*kT*k[5mC]*kT*e[5mC]) [Compound 1198550]
YAP1 (% UT) [5]: 17 % UT

1197308 (kA*kA*kT*dA*mU*dT*dG*d[5mC]*dA*dA*dT*d[5mC]*dT*kG*kT*k[5mC]; antisense) [Compound 1197308]
YAP1 (% UT) [13]: 49 % UT

1200815 (k[5mC]*kA*k[5mC]*dT*dT*mU*dT*dA*d[5mC]*dA*dT*dT*dA*kG*kG*kA; antisense) [Compound 1200815]
YAP1 (% UT) [12]: 55 % UT

1198753 (k[5mC]*eT*kT*dT*dG*dG*dA*dA*dG*dA*dT*d[5mC]*eT*eG*kA*kA; antisense) [Compound 1198753]
YAP1 (% UTC) [9]: 58 % UTC

1200848 (kA*kT*kA*dT*dT*mG*d[5mC]*dA*dA*dT*d[5mC]*dT*dG*kT*k[5mC]*kT; antisense) [Compound 1200848]
YAP1 (% UT) [12]: 58 % UT

1198266 (kT*kG*dT*dA*dT*dG*dT*d[5mC]*dA*dG*dA*eA*eG*eA*kG*kT; antisense) [Compound 1198266]
YAP1 (% UTC) [4]: 25 % UTC

1200849 (kA*kA*kT*dA*dT*mU*dG*d[5mC]*dA*dA*dT*d[5mC]*dT*kG*kT*k[5mC]; antisense) [Compound 1200849]
YAP1 (% UT) [12]: 53 % UT

1197239 (antisense kT*kG*kA*dG*mG*dT*dA*dT*dA*dA*d[5mC]*dT*dG*kG*kG*k[5mC]) [Compound 1197239]
YAP1 (% UT) [13]: 47 % UT

1198458 (kA*kA*dT*dT*dG*dT*d[5mC]*dT*d[5mC]*dA*dT*eG*k[5mC]*e[5mC]*kT*eT) [Compound 1198458]
YAP1 (% UTC) [4]: 30 % UTC

1198346 (kT*kA*kA*dT*dA*dT*dT*dG*d[5mC]*dA*dA*dT*k[5mC]*eT*kG*eT; antisense) [Compound 1198346]
YAP1 (% UT) [7]: 40 % UT

1198405 (k[5mC]*dT*dT*dT*dG*dG*dA*dA*dG*dA*dT*k[5mC]*eT*kG*eA*kA; antisense) [Compound 1198405]
YAP1 (% UTC) [10]: 36 % UTC

Reference: US11214803B2, “Modulators of YAP1 expression” (Ionis Pharmaceuticals, Inc., priority 2019, dated 2022)
